One assay deals with Sommerweizen. The assay can be described thus: Field test of gametocidal activity (sterilisation of anthers), spring wheat. It is filed as in vivo. The note with it: Sorte Botanitscheskaja 4; V. Periode der Organogenese; 1%ige wäßrige Emulsion; 6 kg/ha.
Source text: Die gametozide Aktivitat der erfindungsgemäßen Sterilisationsmittel war im Feldversuch in verschiedenen bodenklimatischen Zonen mit Teilstücken von 10 m^2 Größe in drei- bis viermaliger Wiederholung festgestellt. Jedes Sterilisationsmittel wurde mindenstens 5 Jahre lang geprüft.
Die Entwicklung der Perioden der Organogenese wird zytologisch überwacht. Die Behandlung von Pflanzen mit dem Sterilisationsmittel erfolgt am Anfang der fünften Periode der Organogenese nach Kupermann.
Mit dem Ährenschieben verwirklicht man die Isolierung von Hauptähren und anderen Stockwerken in Pergamentbeuteln. Bei Weizen und Tritikale werden Einzelisolatoren benutzt. Bei Roggen schließt man je Ähre 5 bis 7 verschiedene nebeneinander befindliche Pflanzen unter einen gemeinsamen Isolator ein. Bei Hierse wird jede Rispe getrennt isoliert. Der Sterilitätsprozentsatz (X) für Weizen, Roggen, Tritikale und Hirse wird nach der Formel [formula] ermittelt.
Die Kornzahl in nicht isolierten Ähren von Kontrollpflanzen wird bedingt für 100 % Ansetzen bei freier Bestäubung angenommen.
Um zuverlässige Angaben zu erhalten, verwendet man 20 bis 25 Isolatoren jeder Wiederholung für Weizen und Tritikale, 10 .bis 15 Isolatoren jeder Wiederholung für Roggen und Hirse.
Pflanzen des Sommerweizens Sorte Moskowskaja 35 werden in der V. Periode der Organogenese (nach Kupermann) mit 1%iger wäßriger Emulsion von δ, δ' -Thiodivaleriansäure, Natriumsalz der δ, δ' -Thiodivaleriansäure, δ, δ'--Sulfonyldivaleriansäure, Natriumsalz der d, δ' -Sulfonyldivaleriansäure, Kaliumsalz der δ, δ' -Sulfornyldivaleriansäure, Bis (die-n-butyläther) der δ, δ' -Thiodivaleriansäure, 4-Karboxybutyldezylsulfid, Bis(2-äthylhexyläther) der δ, δ' -Thiodivaleriansäure behandelt. Die Emulsion enthält 0,1 Masse% Kalziumalkylbenzolsulfonat mit 12 bis 14 Kohlenstoffatomen und 0,01 Masse% Dimethylsulfoxid. Der Verbrauch an Präparat beträgt 6 kg/ha. Als Kontrolle dienen Pflanzen, behandelt mit einem Verdünner ohne Sterilisationsmittel. Die Prüfergebnisse sind in der Tabelle 4 angegeben. […] Periode der Organogenese erhalten.
(§1) Pflanzen des Sommerweizens Sorte Rodina werden in der V. Periode der Organogenese (nach Kupermann) mit l%iger wäßriger Emulsion von δ, δ' -Sulfornyldivaleriansäure, 4-Karboxybutyldezylsulfid, Bis(2-äthylhexyläther) der δ, δ' -Thiodivaleriansäure behandelt. Die Emulsion enthält 0,1 Masse% Kalziumalkylbenzolsulfonat mit 12 bis 14 Kohlenstoffatomen und 0,01 Masse% Tetrahydrofuran. Der Verbrauch an Präparat beträgt 6 kg/ha. Als Kontrolle dienen Pflanzen, behandelt mit einem Verdünner ohne Sterilisationsmittel. Die Prüfergebnisse sind in der Tabelle 5 angegeben. […] Periode der Organogenese erhalten.
Pflanzen des Sommerwizens Sorte Charkowskaja 9 werden in der V. Periode der Organogenese (nach Kupermann.) mit 1%iger waßriger Emulsion von Bis(di-n-butyläther) der δ, δ' -Thiodivaleriansäure, Bis(2-äthylhexyläther) der δ, δ' -Thiodivaleriansäure behandelt. Die Emulsion enthält 0,1 Masse% Kalziumalkylbenzolsulfonat mit 12 bis 14 Kohlenstoffatomen und 0,01 Masse% Äthylenglykol. Der Verbrauch an Präparat beträgt 8 kg/ha. Als Kontrolle dienen Pflanzen, behandelt mit einem Verdünner ohne Sterilisationsmittel. Die Prüfergebnisse sind in der Tabelle 6 angegeben. […] Periode der Organogenese erhalten.
as §1, with “Botanitscheskaja 4” for “Rodina”, “1%iger” for “l%iger”, “von Natriumsatz der” for “von”, “--Thiodivaleriansäure, Bis(di-n-butyläther) der δ, δ' -Thiodiväleriansäure,” for “-Sulfornyldivaleriansäure,”, “Dodezylsulfat.” for “Tetrahydrofuran.”, “7” for “5”
For `O=C([O-])CCCCSCCCCC(=O)[O-].[Na+].[Na+]` [Beispiel 28, Natriumsatz der δ, δ' --Thiodivaleriansäure], the “Anzahl von Körnern der Ähre bei freier Bestäubung” value is 36,2, the “Anzahl von Körnern der Ähre im Isolator” value is on record as 0,3, the “Prozentsatz der Sterilität” value was 99,2% and the “Prozentsatz des Ansetzens von Körnern bei freier Bestäubung” value is 90,0%.

As to `CCCCCCCCCCSCCCCC(=O)O` [Beispiel 30, 4-Karboxybutyldezylsulfid], the “Anzahl von Körnern der Ähre bei freier Bestäubung” value is reported as 32,8, the “Anzahl von Körnern der Ähre im Isolator” value was 0,0, the “Prozentsatz der Sterilität” value is 100,0% and the “Prozentsatz des Ansetzens von Körnern bei freier Bestäubung” value is listed as 81,6%.

Consider `CCCCC(CC)COC(=O)CCCCSCCCCC(=O)OCC(CC)CCCC` (centres unmarked) [Beispiel 31, Bis(2-äthylhexyläther) der δ, δ' -Thiodivaleriansäure], for which the “Anzahl von Körnern der Ähre bei freier Bestäubung” value is on record as 33,4, the “Anzahl von Körnern der Ähre im Isolator” value is recorded as 0,0, the “Prozentsatz der Sterilität” value was 100,0% and the “Prozentsatz des Ansetzens von Körnern bei freier Bestäubung” value is 83,1%.

Regarding “Bis(di-n-butyläther) der δ, δ' -Thiodiväleriansäure [Beispiel 29]”, the “Anzahl von Körnern der Ähre bei freier Bestäubung” value is 30,6, the “Anzahl von Körnern der Ähre im Isolator” value is 0,0, the “Prozentsatz der Sterilität” value is 100,0% and the “Prozentsatz des Ansetzens von Körnern bei freier Bestäubung” value is reported as 76,2%.

Still in this assay, the particulars now being: Sorte Charkowskaja 9; V. Periode der Organogenese; 1%ige Emulsion; 8 kg/ha.
Consider `CCCCC(CC)COC(=O)CCCCSCCCCC(=O)OCC(CC)CCCC` (centres unmarked) [Beispiel 27, Bis(2-äthylhexyläther) der δ, δ' -Thiodivaleriansäure], for which the “Anzahl von Körnern der Ähre bei freier Bestäubung” value is on record as 28,6, the “Anzahl von Körnern der Ähre im Isolator” value was 0,0, the “Prozentsatz der Sterilität” value was 100,0% and the “Prozentsatz des Ansetzens von Körnern bei freier Bestäubung” value is recorded as 88,9%.

Regarding “Bis(di-n-butyläther) der δ, δ' -Thiodivaleriansäure [Beispiel 26]”, the “Anzahl von Körnern der Ähre bei freier Bestäubung” value is reported as 28,7, the “Anzahl von Körnern der Ähre im Isolator” value is reported as 0,0, the “Prozentsatz der Sterilität” value was 100,0% and the “Prozentsatz des Ansetzens von Körnern bei freier Bestäubung” value was 89,1%.

Still in this assay, the particulars now being: Sorte Moskowskaja 35; V. Periode der Organogenese; 1%ige wäßrige Emulsion; 6 kg/ha.
For `O=C(O)CCCCSCCCCC(=O)O` [Beispiel 15, δ, δ' -Thiodivaleriansäure], the “Anzahl von Körnern der Ähre bei freier Bestäubung” value was 31,7, the “Anzahl von Körnern der Ähre im Isolator” value is on record as 0,9, the “Prozentsatz der Sterilität” value was 97,0% and the “Prozentsatz des Ansetzens von Körnern bei freier Bestäubung” value is listed as 98,3%.

As to `O=C([O-])CCCCSCCCCC(=O)[O-].[Na+].[Na+]` [Beispiel 16, Natriumsalz der δ, δ' -Thiodivaleriansäure], the “Anzahl von Körnern der Ähre bei freier Bestäubung” value was 30,8, the “Anzahl von Körnern der Ähre im Isolator” value is on record as 0,9, the “Prozentsatz der Sterilität” value was 97,0% and the “Prozentsatz des Ansetzens von Körnern bei freier Bestäubung” value is 96,5%.

With `O=C(O)CCCCS(=O)(=O)CCCCC(=O)O` [Beispiel 17, δ, δ'--Sulfonyldivaleriansäure], the “Anzahl von Körnern der Ähre bei freier Bestäubung” value was 26,7, the “Anzahl von Körnern der Ähre im Isolator” value is reported as 0,0, the “Prozentsatz der Sterilität” value was 100,0% and the “Prozentsatz des Ansetzens von Körnern bei freier Bestäubung” value was 83,6%.

In the case of `O=C([O-])CCCCS(=O)(=O)CCCCC(=O)[O-].[Na+].[Na+]` [Beispiel 18, Natriumsalz der d, δ' -Sulfonyldivaleriansäure], the “Anzahl von Körnern der Ähre bei freier Bestäubung” value was 31,1, the “Anzahl von Körnern der Ähre im Isolator” value was 0,3, the “Prozentsatz der Sterilität” value was 99,0% and the “Prozentsatz des Ansetzens von Körnern bei freier Bestäubung” value is 97,4%.

For `O=C([O-])CCCCS(=O)(=O)CCCCC(=O)[O-].[K+].[K+]` [Beispiel 19, Kaliumsalz der δ, δ' -Sulfornyldivaleriansäure], the “Anzahl von Körnern der Ähre bei freier Bestäubung” value is 30,5, the “Anzahl von Körnern der Ähre im Isolator” value was 0,3, the “Prozentsatz der Sterilität” value is on record as 99,0% and the “Prozentsatz des Ansetzens von Körnern bei freier Bestäubung” value is 95,6%.

As for `CCCCCCCCCCSCCCCC(=O)O` [Beispiel 21, 4-Karboxybutyldezylsulfid], the “Anzahl von Körnern der Ähre bei freier Bestäubung” value is listed as 26,9, the “Anzahl von Körnern der Ähre im Isolator” value is on record as 0,0, the “Prozentsatz der Sterilität” value is given as 100,0% and the “Prozentsatz des Ansetzens von Körnern bei freier Bestäubung” value is on record as 84,3%.

`CCCCC(CC)COC(=O)CCCCSCCCCC(=O)OCC(CC)CCCC` (centres unmarked) [Beispiel 22, Bis(2-äthylhexyläther) der δ, δ' -Thiodivaleriansäure]: the “Anzahl von Körnern der Ähre bei freier Bestäubung” value is reported as 25,7, the “Anzahl von Körnern der Ähre im Isolator” value is listed as 0,0, the “Prozentsatz der Sterilität” value is given as 100,0% and the “Prozentsatz des Ansetzens von Körnern bei freier Bestäubung” value is on record as 80,6%.

As for “Bis (die-n-butyläther) der δ, δ' -Thiodivaleriansäure [Beispiel 20]”, the “Anzahl von Körnern der Ähre bei freier Bestäubung” value is on record as 28,7, the “Anzahl von Körnern der Ähre im Isolator” value was 0,0, the “Prozentsatz der Sterilität” value was 100,0% and the “Prozentsatz des Ansetzens von Körnern bei freier Bestäubung” value is 89,9%.

The assay is the same for the next values; noted with them: Sorte Rodina; V. Periode der Organogenese; 1%ige wäßrige Emulsion; 6 kg/ha.
Regarding `O=C(O)CCCCS(=O)(=O)CCCCC(=O)O` [Beispiel 23, δ, δ' -Sulfornyldivaleriansäure], the “Anzahl von Körnern der Ähre bei freier Bestäubung” value is 36,1, the “Anzahl von Körnern der Ähre im Isolator” value was 0,0, the “Prozentsatz der Sterilität” value is 100,0% and the “Prozentsatz des Ansetzens von Körnern bei freier Bestaubung” value is recorded as 96,3%.

Regarding `CCCCCCCCCCSCCCCC(=O)O` [Beispiel 24, 4-Karboxybutyldezylsulfid], the “Anzahl von Körnern der Ähre bei freier Bestäubung” value is recorded as 29,8, the “Anzahl von Körnern der Ähre im Isolator” value is 0,0, the “Prozentsatz der Sterilität” value is 100,0% and the “Prozentsatz des Ansetzens von Körnern bei freier Bestaubung” value is 79,5%.

`CCCCC(CC)COC(=O)CCCCSCCCCC(=O)OCC(CC)CCCC` (centres unmarked) [Beispiel 25, Bis(2-äthylhexyläther) der δ, δ' -Thiodivaleriansäure]: the “Anzahl von Körnern der Ähre bei freier Bestäubung” value is 31,2, the “Anzahl von Körnern der Ähre im Isolator” value is 0,0, the “Prozentsatz der Sterilität” value was 100,0% and the “Prozentsatz des Ansetzens von Körnern bei freier Bestaubung” value was 83,2%.

Values taken from patent EP0362382A1, “METHOD OF STERILIZING PLANT POLLEN” (VSESOJUZNY NAUCHNO-ISSLEDOVATELSKY INST. SELSKOKHOZYAISTV. …, priority 1988, dated 1989).
